The results in this text go back to ChEMBL document CHEMBL1932968, “Cyclic amino acid linkers stabilizing key loops of brain derived neurotrophic factor” (Bioorg Med Chem Lett, 2012).

The source made the active and inactive calls. The rule behind the calls is not given here. *1 amine or outer side, *2 acyl side, *3 side chain or, on linkers, in order; H or OH if unused. Where a SMILES comes first, the peptide text is derived from it. [ ]: non-standard residue; d: D form. ACHC(1S,2S) = O=C([C@H]1CCCC[C@@H]1N[*:1])[*:2]; X2 = C[C@@]1(C(=O)[*:2])CCN1[*:1]; X1 = C[C@]1(C(=O)[*:2])CCN1[*:1]; Aze = O=C(O)[C@@H]1CCN1; βAla = NCCC(=O)O

Test [1] concerns the target BDNF/NT-3 growth factors receptor (Rattus norvegicus) (UniProt Q63604). The experiment in a line: Agonist activity at TrkB in E18 Sprague-Dawley rat hippocampal neurons assessed as induction of TrkB autophosphorylation at Tyr490 at 100 uM after 1 hr by Western blotting analysis. The format is functional, tissue-based. To be noted: Hippocampus.
Test [2] has the same target. The experiment in a line: Antagonist activity at TrkB in E18 Sprague-Dawley rat hippocampal neurons assessed as inhibition of BDNF-induced TrkB phosphorylation at Tyr490 at 100 uM preincubated for 1 hr followed by BDNF induction for 10 mins by Western blotting analysis. The class given is functional, tissue-based. To be noted: Hippocampus. (In general: Immunoblotting shows a protein as a band on a membrane.)

Sequence of BDNF/NT-3 growth factors receptor (Rattus norvegicus) (Q63604 whole entry): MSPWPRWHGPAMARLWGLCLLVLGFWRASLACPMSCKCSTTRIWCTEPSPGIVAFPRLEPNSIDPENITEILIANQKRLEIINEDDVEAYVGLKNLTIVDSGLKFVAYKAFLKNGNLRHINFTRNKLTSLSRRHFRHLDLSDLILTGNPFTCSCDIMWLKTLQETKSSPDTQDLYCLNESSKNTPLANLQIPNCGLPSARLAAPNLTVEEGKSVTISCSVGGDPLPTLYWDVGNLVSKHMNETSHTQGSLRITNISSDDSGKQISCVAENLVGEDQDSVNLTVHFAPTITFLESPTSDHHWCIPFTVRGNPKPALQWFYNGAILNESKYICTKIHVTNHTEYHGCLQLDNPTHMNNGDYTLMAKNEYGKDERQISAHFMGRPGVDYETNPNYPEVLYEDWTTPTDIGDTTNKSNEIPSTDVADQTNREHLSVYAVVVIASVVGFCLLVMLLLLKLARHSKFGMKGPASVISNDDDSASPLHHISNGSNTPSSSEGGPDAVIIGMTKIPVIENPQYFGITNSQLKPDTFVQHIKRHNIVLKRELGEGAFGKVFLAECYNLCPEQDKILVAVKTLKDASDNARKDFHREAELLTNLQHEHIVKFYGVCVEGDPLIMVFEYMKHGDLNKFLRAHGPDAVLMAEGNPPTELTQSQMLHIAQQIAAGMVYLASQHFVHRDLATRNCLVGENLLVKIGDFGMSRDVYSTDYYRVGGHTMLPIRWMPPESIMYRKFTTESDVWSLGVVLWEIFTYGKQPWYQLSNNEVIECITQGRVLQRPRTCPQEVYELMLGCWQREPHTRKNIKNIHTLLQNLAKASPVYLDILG

On to `N=C(N)NCCC[C@@H]1NC(=O)[C@H](CCCCN)NC(=O)[C@H](CCCCN)NC(=O)[C@H](CO)NC(=O)[C@H](CC(=O)O)NC(=O)[C@H]2CCCC[C@@H]2NC1=O` (cyclo(DSKKR[ACHC(1S,2S)])), for which the outcome in test [1] was inactive. In addition, in test [2], the inhibition entry was “Active”.

Take `CC(C)[C@@H]1NC(=O)[C@@H]2CCN2C(=O)CCNC(=O)[C@H](CCCCN)NC(=O)[C@H](CO)NC1=O` (cyclo([Aze]VSK[βAla])): the outcome in test [1] was inactive. The inhibition entry in test [2] is “inactive”.

As to `CC(C)[C@@H]1NC(=O)[C@H]2CCCC[C@@H]2NC(=O)CCNC(=O)[C@H](CCCCN)NC(=O)[C@H](CO)NC(=O)[C@H](C(C)C)NC(=O)[C@H]2CCCC[C@@H]2NC(=O)CCNC(=O)[C@H](CCCCN)NC(=O)[C@H](CO)NC1=O` (cyclo(K[βAla][ACHC(1S,2S)]VSK[βAla][ACHC(1S,2S)]VS)), the outcome in test [1] was inactive.

Turning to `CC(C)[C@@H]1NC(=O)[C@H]2CCCC[C@@H]2NC(=O)CCNC(=O)[C@H](CCCCN)NC(=O)[C@H](CO)NC1=O`, in test [1], the outcome was inactive. The inhibition result in test [2] was “inactive”.

For `N=C(N)NCCC[C@@H]1NC(=O)[C@H]2CCCC[C@@H]2NC(=O)[C@H](CC(=O)O)NC(=O)[C@H](CO)NC(=O)[C@H](CCCCN)NC(=O)[C@H](CCCCN)NC(=O)[C@H](CCCNC(=N)N)NC(=O)[C@H]2CCCC[C@@H]2NC(=O)[C@H](CC(=O)O)NC(=O)[C@H](CO)NC(=O)[C@H](CCCCN)NC(=O)[C@H](CCCCN)NC1=O` (cyclo(D[ACHC(1S,2S)]RKKSD[ACHC(1S,2S)]RKKS)), in test [1], the result was inactive. The inhibition result in test [2] was “Active”.

Take `CC(C)[C@@H]1NC(=O)[C@H]2CCCC[C@@H]2NC(=O)CNC(=O)[C@H](CCCCN)NC(=O)[C@H](CO)NC1=O` (cyclo(G[ACHC(1S,2S)]VSK)): the outcome in test [1] was inactive. In addition, in test [2], the inhibition entry is “inactive”.

Turning to `CC(C)[C@@H]1NC(=O)[C@H]2CCCC[C@@H]2NC(=O)CNC(=O)[C@H](CCCCN)NC(=O)[C@H](CO)NC(=O)[C@H](C(C)C)NC(=O)[C@H]2CCCC[C@@H]2NC(=O)CNC(=O)[C@H](CCCCN)NC(=O)[C@H](CO)NC1=O` (cyclo(G[ACHC(1S,2S)]VSKG[ACHC(1S,2S)]VSK)), the result in test [1] was inactive.

As to `CC(C)[C@@H]1NC(=O)[C@@]2(C)CCN2C(=O)CCNC(=O)[C@H](CCCCN)NC(=O)[C@H](CO)NC1=O`, the result in test [1] was inactive. Further, the inhibition result in test [2] was “inactive”.

On to `CC(C)[C@@H]1NC(=O)[C@]2(C)CCN2C(=O)CNC(=O)[C@H](CCCCN)NC(=O)[C@H](CO)NC(=O)[C@H](C(C)C)NC(=O)[C@@]2(C)CCN2C(=O)CNC(=O)[C@H](CCCCN)NC(=O)[C@H](CO)NC1=O` (cyclo(G[X1]VSKG[X2]VSK)), for which, in test [1], the result was inactive. Also, the inhibition entry in test [2] is “Active”.

`CC(C)[C@@H]1NC(=O)[C@]2(C)CCN2C(=O)CCNC(=O)[C@H](CCCCN)NC(=O)[C@H](CO)NC1=O`: the result in test [1] was inactive. In addition, the inhibition entry in test [2] is “inactive”.

With `CC(C)[C@@H]1NC(=O)[C@@H]2CCN2C(=O)CNC(=O)[C@H](CCCCN)NC(=O)[C@H](CO)NC1=O` (cyclo([Aze]VSKG)), in test [1], the outcome was inactive. In addition, the inhibition entry in test [2] is “inactive”.

For `CC(C)[C@@H]1NC(=O)C2(C)CCN2C(=O)CNC(=O)[C@H](CCCCN)NC(=O)[C@H](CO)NC1=O` (mixture of isomers), the result in test [1] was inactive. The inhibition entry in test [2] was “inactive”.

On to `CC(C)[C@@H]1NC(=O)[C@@H]2CCN2C(=O)CNC(=O)[C@H](CCCCN)NC(=O)[C@H](CO)NC(=O)[C@H](C(C)C)NC(=O)[C@@H]2CCN2C(=O)CNC(=O)[C@H](CCCCN)NC(=O)[C@H](CO)NC1=O` (cyclo([Aze]VSKG[Aze]VSKG)), for which the outcome in test [1] was inactive.
